Assay results as given in patent publication US20180077929A1, “METHODS AND SYSTEMS FOR TREATING MEDICAL DEVICES AND FLUIDS” (priority 2016, published 2018).

How the values were obtained:
[1] = Animal study: intraperitoneal endotoxin mixed with calcium stearate; format: in vivo; conditions: female rats, 4 days, endotoxin alone: severe toxicity
Experimental: An animal study was conducted with 30 female rats with weights ranging from 250-300 g and acclimated for 5 days. All rats were dosed with intraperitoneal injections using 18 gauge needles. The rats were broken into 6 groups. A negative control (NC-1) dosed 5 rats with 5 mL of normal saline solution. […] A positive control (PC-1) dosed 5 rats with 2.5 million EU in a 5 mL saline solution. A second positive control (PC-2) was conducted dosing 5 rats with 5 million endotoxin units in a 5 mL normal saline solution. Two experimental test groups were conducted.
The negative control samples also had no toxicity.

[2] = Suture testing in ethanol, cyclohexane, isopropanol with 1% CaSt; format: biochemical; conditions: for Endotoxin Detected: control suture 68.1 EU
Experimental: Similarly to the testing above, an absorbable suture of the same type, similarly contaminated, was exposed to CaSt in three solvents (ethanol, cyclohexane, isopropanol). The suture was then tested for LPS. […] In presence of CaSt 1% suspension (CaSt could be slightly soluble in the solvents), LPS activity decreased by 75-95%.
Sutures used were 27 inch long pieces of absorbable lactide-glycolide sutures. Endotoxin sources used were Stagnant Rain Water (SRW) and LRW (3980 EU/mL). 7 strands of suture were placed in tubing with endotoxin solution for 10 minutes at a time. The sutures were dried for 20 minutes and then placed in round bottom tubes. […] 1 suture was placed in each tube and vortexed in this solution for approximately 10 seconds. The sutures were removed and allowed to dry for 20 minutes and then placed in round bottom tubes. This was done for 6 sutures. 1 piece of suture, serving as the control, was not submerged in any solutions and placed in test tubes. 3 mL of LAL reagent water was added to each test tube, vortexed vigorously, and then placed in a hot water bath at 37° C. for 1 hour. They were then removed, vortexed vigorously, diluted, and tested on the MCS system.

[3] = Testing of various sources of LPS with CaSt in water; format: biochemical
Experimental: Therefore, for the methods described above, the activity of endotoxin was tested with various sources of endotoxin. Laboratory grown endotoxin is purified while natural endotoxin will be present with other substances such as proteins and phospholipids.
The laboratory grown endotoxin used in this experiment was supplied by Charles River Laboratories.
Natural airborne endotoxin was captured using an electret filter. Electret filters are produced from dielectric polymer fibers that develop an electrical charge when air flows past them, capturing the endotoxin along with other particles. The endotoxin was extracted from the filter by placing the filter in endotoxin free water for an extended period of time.
Two other natural sources of endotoxin were obtained from water samples in the surrounding environment. One source was a pool of sitting rain water and other being a small puddle on the side of the Raritan River. The sitting rain water (SRW) was purified via chlorination and 0.2 μm filter. The Raritan River Water (RRW) was not altered in anyway. The same testing procedure was conducted for all sources of endotoxin.

[4] = Wound dressing (fibrin pad) testing in cyclohexane containing CaSt; format: biochemical; conditions: dressing spiked with 8.9 EU, 15 minutes in 10 mL cyclohexane with 0.1 g CaSt
Experimental: A wound dressing containing dry fibrinogen and dry thrombin on an absorbable support was tested as follows. The pad was spiked with LPS and then exposed to cyclohexane containing CaSt to determine the effect on detectable LPS.
Three 1×2 inch pieces of the dressing were spiked with endotoxin resulting in 8.9 EU of LPS. The pieces were allowed to dry for 20 minutes, then placed into 50 mL polypropylene conical tubes. 7.5 mL of LAL reagent water+2.5 mL 0.25M tris buffer was added to Tube 1. 10 mL of cyclohexane with 0.1 g of CaSt was added to Tube 2. 10 mL of cyclohexane was added to Tube 3. The tubes were closed and then placed on the bottle roller rotator machine for 15 minutes so that the tube could continuously roll and the dressing was constantly in contact with liquid.
Tube 1 solution was then diluted and tested for endotoxin on the MCS system. The fibrin pad pieces from Tube 2 and Tube 3 were removed and placed in new tubes and extracted in 7.5 mL of LAL reagent water+2.5 mL 0.25M tris buffer. The solutions were then tested on the MCS system for endotoxin (LPS).

[5] = Charles River Standard, 8330 EU spiked, 0.05 g Calcium Stearate
[6] = Charles River Standard, 8330 EU spiked, 0.15 g Calcium Stearate
[7] = Charles River Standard, 8330 EU spiked, 0.25 g Calcium Stearate
[8] = Dust Filter Extraction Water, 9280 EU spiked, 0.01 g Calcium Stearate
[9] = Dust Filter Extraction Water, 9280 EU spiked, 0.25 g Calcium Stearate
[10] = RRW endotoxin, 4340 EU spiked, 0.01 g Calcium Stearate
[11] = RRW endotoxin, 4340 EU spiked, 0.1 g Calcium Stearate
[12] = RRW endotoxin, 4340 EU spiked, 0.25 g Calcium Stearate
[13] = SRW endotoxin, 11100 EU spiked, 0.01 g Calcium Stearate

## Calcium Stearate
[1]; T-1: 2,500,000 EU + 0.2 g Calcium Stearate in 5.0 mL normal saline dosed IP
  Results (toxicity observed): No Toxicity
[1]; T-1: 2,500,000 EU + 0.2 g Calcium Stearate in 5.0 mL normal saline dosed IP, listed as calcium stearate
  Results (toxicity observed): no toxicity or adverse effects
[1]; T-2: 5,000,000 EU + 0.2 g Calcium Stearate in 5.0 mL normal saline dosed IP
  Results (toxicity observed): No Toxicity
[1]; T-2: 5,000,000 EU + 0.2 g Calcium Stearate in 5.0 mL normal saline dosed IP, listed as calcium stearate
  Results (toxicity observed): no toxicity or adverse effects
[2]; CaSt 1% suspension in ethanol, cyclohexane, isopropanol
  LPS activity decreased by: 75-95%
[2]; suture in Cyclohexane w/1% Calcium Stearate (0.0858 g) vs. control suture
  Change in Endotoxin Level: −94.1%
[2]; suture in Cyclohexane w/1% Calcium Stearate (0.0858 g)
  Endotoxin Detected: 4.02 EU
[2]; suture in Ethanol w/1% Calcium Stearate (0.0827 g) vs. control suture
  Change in Endotoxin Level: −77.9%
[2]; suture in Ethanol w/1% Calcium Stearate (0.0827 g)
  Endotoxin Detected: 15.06 EU
[2]; suture in Isopropanol w/1% Calcium Stearate (0.0841 g) vs. control suture
  Change in Endotoxin Level: −75.6%
[2]; suture in Isopropanol w/1% Calcium Stearate (0.0841 g)
  Endotoxin Detected: 16.59 EU
[3]; 0.1 grams of calcium stearate and higher, all sources of endotoxin
  percent of endotoxin recovered: under 5%
[3]; Charles River Standard, 8330 EU spiked, 0.007 g Calcium Stearate
  Percent of Endotoxin Detected: 48.0%
[3]; Charles River Standard, 8330 EU spiked, 0.018 g Calcium Stearate
  Percent of Endotoxin Detected: 17.9%
[3]; Charles River Standard, 8330 EU spiked, 0.028 g Calcium Stearate
  Percent of Endotoxin Detected: 2.8%
[3]; [5]
  Endotoxin Detected: 190.5 EU
  Percent of Endotoxin Detected: 2.3%
[3]; [6]
  Endotoxin Detected: 86.5 EU
  Percent of Endotoxin Detected: 1.0%
[3]; [7]
  Endotoxin Detected: 38.5 EU
  Percent of Endotoxin Detected: 0.5%
[3]; [8]
  Endotoxin Detected: 3440 EU
  Percent of Endotoxin Detected: 37.1%
[3]; [9]
  Endotoxin Detected: 28.5 EU
  Percent of Endotoxin Detected: 0.3%
[3]; [10]
  Endotoxin Detected: 960 EU
  Percent of Endotoxin Detected: 22.1%
[3]; [11]
  Endotoxin Detected: 165 EU
  Percent of Endotoxin Detected: 3.8%
[3]; [12]
  Endotoxin Detected: 70 EU
  Percent of Endotoxin Detected: 1.6%
[3]; RRW endotoxin, 4340 EU spiked, 0.35 g Calcium Stearate
  Percent of Endotoxin Detected: 2.6%
[3]; [13]
  Endotoxin Detected: 2780 EU
  Percent of Endotoxin Detected: 25.0%
[3]; SRW endotoxin, 11100 EU spiked, 0.25 g Calcium Stearate
  Percent of Endotoxin Detected: 1.0%
[4]
  Endotoxin detected on Pad: 1.8 EU
  Percent Endotoxin detected as compared to Tube 1: 20.2%
[4]; listed as CaSt
  Endotoxin detected on Pad: 2 EU
